Assay results: ChEMBL document CHEMBL1201862, “PubChem BioAssay data set” (2004)
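Method: 48-hour compound exposure of cells in 96-well plates, five concentrations, linear interpolation of endpoints. GI50 is the concentration that inhibits growth by half.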 The source made the active and inactive calls. Rule as the data show it: active = GI50 up to about 1.1 µM and inactive = higher.

Legend:
Test in all cases: growth of human tumour cells (NCI), 48 h
HOP-62 = tested on: HOP-62
HL-60 = tested on: HL-60
SW-620 = tested on: SW-620
HCT-116 = tested on: HCT-116
MCF7 = tested on: MCF7
U-251 = tested on: U-251
SK-OV-3 = tested on: SK-OV-3
NCI/ADR-RES = tested on: NCI/ADR-RES
PC-3 = tested on: PC-3
OVCAR-5 = tested on: OVCAR-5
CAKI-1 = tested on: CAKI-1
BT-549 = tested on: BT-549
CCRF-CEM = tested on: CCRF-CEM
K562 = tested on: K562
T47D = tested on: T47D
A549 = tested on: A549
NCI-H460 = tested on: NCI-H460
NCI-H522 = tested on: NCI-H522
SNB-75 = tested on: SNB-75
SR = tested on: SR

SMILES	GI50 (HOP-62)	GI50 (HL-60)	GI50 (SW-620)	GI50 (HCT-116)	GI50 (MCF7)	GI50 (U-251)	GI50 (SK-OV-3)	GI50 (NCI/ADR-RES)	GI50 (PC-3)	GI50 (OVCAR-5)	GI50 (CAKI-1)	GI50 (BT-549)	GI50 (CCRF-CEM)	GI50 (K562)	GI50 (T47D)	GI50 (A549)	GI50 (NCI-H460)	GI50 (NCI-H522)	GI50 (SNB-75)	GI50 (SR)
CC(C)(C)C(=O)N(C(=S)OCc1ccccn1)c1ccccc1	13.2 µM (inactive)	19.9 µM (inactive)	47.6 µM (inactive)	23.1 µM (inactive)	19.8 µM (inactive)	42 µM (inactive)	> 100 µM (inactive)	23.1 µM (inactive)	35.2 µM (inactive)	32.4 µM (inactive)	35.2 µM (inactive)	42.1 µM (inactive)	22.6 µM (inactive)	36.7 µM (inactive)	20 µM (inactive)					
N=C(CC(=O)NOC(=O)c1ccccc1)NOC(=O)c1ccccc1	44.8 µM (inactive)	78.3 µM (inactive)	50.8 µM (inactive)	38.6 µM (inactive)	25.8 µM (inactive)	34.1 µM (inactive)	28.7 µM (inactive)	25.5 µM (inactive)	> 100 µM (inactive)	59.6 µM (inactive)	36.9 µM (inactive)	25.2 µM (inactive)	38 µM (inactive)	28.5 µM (inactive)	> 100 µM (inactive)	32.4 µM (inactive)	31.1 µM (inactive)			
CN1C2CCC1C(C(O)c1ccccc1[N+](=O)[O-])C(=O)C2 (centres undefined)	45.3 µM (inactive)	31.8 µM (inactive)	45.2 µM (inactive)	32.3 µM (inactive)	39.1 µM (inactive)	> 100 µM (inactive)	> 100 µM (inactive)	23.4 µM (inactive)	45.7 µM (inactive)	> 100 µM (inactive)	38.4 µM (inactive)	43.9 µM (inactive)	46.9 µM (inactive)	32.1 µM (inactive)	26.6 µM (inactive)	> 100 µM (inactive)	> 100 µM (inactive)	40.3 µM (inactive)		
Cc1ccc(S(=O)(=O)N(CC(O)c2ccccc2)c2ccccc2F)cc1 (centres undefined)	16.8 µM (inactive)	1.13 µM (inactive)	19.6 µM (inactive)	12.7 µM (inactive)	13 µM (inactive)	19.5 µM (inactive)	17.4 µM (inactive)	16.4 µM (inactive)	15.5 µM (inactive)	19.2 µM (inactive)	15.7 µM (inactive)	16.6 µM (inactive)	25.3 µM (inactive)	17 µM (inactive)	14.5 µM (inactive)	19.5 µM (inactive)	17.4 µM (inactive)	17.3 µM (inactive)	12.3 µM (inactive)	
COc1cc([C@@H]2c3cc4c(cc3[C@@H](Nc3ccc(NC(=O)c5cc(NC(=O)c6cc([N+](=O)[O-])cn6C)cn5C)cc3)[C@H]3COC(=O)[C@H]23)OCO4)cc(OC)c1O	0.361 µM (active)	0.16 µM (active)	2.72 µM (inactive)	0.149 µM (active)	0.047 µM (active)	10.3 µM (inactive)	11.6 µM (inactive)	0.573 µM (active)		> 61.4 µM (inactive)	0.323 µM (active)	> 100 µM (inactive)	0.154 µM (active)	0.0493 µM (active)	31.1 µM (inactive)	0.239 µM (active)	0.0303 µM (active)	0.261 µM (active)	4.89 µM (inactive)	0.0159 µM (active)
COC(=O)C1=C(C(=O)OC)SC(=C2S[C@@H]3[C@@H]4C[C@H]([C@@H]3S2)[C@H]2C(=O)OC(=O)[C@@H]42)S1	> 100 µM (inactive)	> 100 µM (inactive)	> 100 µM (inactive)	> 100 µM (inactive)	> 100 µM (inactive)	> 100 µM (inactive)		> 100 µM (inactive)	> 100 µM (inactive)	> 100 µM (inactive)	> 100 µM (inactive)	> 100 µM (inactive)	> 100 µM (inactive)	> 100 µM (inactive)	> 100 µM (inactive)	> 100 µM (inactive)		> 100 µM (inactive)		
CCCCCCCCCc1c(O)c(O)c(CCCCCCCCC)c(CCCCCCCCC)c1CCCCCCCCC	> 100 µM (inactive)	26.4 µM (inactive)	> 100 µM (inactive)	> 100 µM (inactive)	8.18 µM (inactive)	> 100 µM (inactive)	> 100 µM (inactive)	> 100 µM (inactive)	> 100 µM (inactive)	> 100 µM (inactive)	> 100 µM (inactive)	> 100 µM (inactive)	31 µM (inactive)	65.9 µM (inactive)	> 100 µM (inactive)	> 100 µM (inactive)	> 100 µM (inactive)	30.2 µM (inactive)		
c1ccc2c(c1)OC(N1CCCC1)c1cnc(N3CCOCC3)nc1-2 (centres undefined)	57.5 µM (inactive)	74.1 µM (inactive)	91 µM (inactive)	> 100 µM (inactive)	10.8 µM (inactive)	> 100 µM (inactive)	35.2 µM (inactive)		41.3 µM (inactive)	22.5 µM (inactive)	27.8 µM (inactive)	17.1 µM (inactive)	31.9 µM (inactive)	62.5 µM (inactive)	3.54 µM (inactive)	57.7 µM (inactive)	53.3 µM (inactive)		17.1 µM (inactive)	38.5 µM (inactive)
CC(C)(C)c1ccc(OCC(=O)O)c(Cl)c1	> 100 µM (inactive)	> 100 µM (inactive)	> 100 µM (inactive)	> 100 µM (inactive)	> 100 µM (inactive)	> 100 µM (inactive)	> 100 µM (inactive)	> 100 µM (inactive)	> 100 µM (inactive)	> 100 µM (inactive)	> 100 µM (inactive)	> 100 µM (inactive)	> 100 µM (inactive)	> 100 µM (inactive)	> 100 µM (inactive)	> 100 µM (inactive)	> 100 µM (inactive)	> 100 µM (inactive)	> 100 µM (inactive)	
CC(=O)c1[nH]c(Nc2ccc(C)cc2)c(C(=S)Nc2ccccc2)c1N	20.8 µM (inactive)	15.8 µM (inactive)	28.4 µM (inactive)	16.7 µM (inactive)	15.7 µM (inactive)	14.4 µM (inactive)	34.3 µM (inactive)	26.8 µM (inactive)		32.9 µM (inactive)	16.9 µM (inactive)	15.6 µM (inactive)	21 µM (inactive)	9.31 µM (inactive)	12.8 µM (inactive)	14.9 µM (inactive)	15.7 µM (inactive)	15.6 µM (inactive)	19.9 µM (inactive)	22.3 µM (inactive)
CC(C)N/C(=N\C#N)NS(=O)(=O)c1cnccc1Nc1ccc(Cl)cc1	> 100 µM (inactive)		> 100 µM (inactive)	> 100 µM (inactive)	> 100 µM (inactive)	> 100 µM (inactive)	> 100 µM (inactive)	> 100 µM (inactive)	> 100 µM (inactive)	> 100 µM (inactive)	> 100 µM (inactive)	> 100 µM (inactive)	> 100 µM (inactive)	> 100 µM (inactive)	> 100 µM (inactive)	> 100 µM (inactive)		> 100 µM (inactive)	> 100 µM (inactive)	
Cc1ccc(C)c2c1NC(=O)/C2=N\Nc1ccccc1[N+](=O)[O-]	55.8 µM (inactive)	> 100 µM (inactive)	> 100 µM (inactive)	> 100 µM (inactive)	> 100 µM (inactive)	85.5 µM (inactive)	> 100 µM (inactive)		> 100 µM (inactive)	> 100 µM (inactive)	> 100 µM (inactive)	> 100 µM (inactive)	> 100 µM (inactive)	74.1 µM (inactive)	> 100 µM (inactive)	> 100 µM (inactive)	> 100 µM (inactive)	> 100 µM (inactive)	> 100 µM (inactive)	1.61 µM (inactive)
O=c1/c(=C\c2ccccc2)sc2n1C(c1ccccc1)C1(O)CCCCC1N=2 (centres undefined)	> 100 µM (inactive)	36 µM (inactive)	> 100 µM (inactive)	51.3 µM (inactive)	43.7 µM (inactive)	> 100 µM (inactive)			69.7 µM (inactive)	> 100 µM (inactive)	> 100 µM (inactive)	> 100 µM (inactive)	91 µM (inactive)	45.2 µM (inactive)	51.5 µM (inactive)	78.3 µM (inactive)	90.2 µM (inactive)	> 100 µM (inactive)	> 100 µM (inactive)	62.5 µM (inactive)
Cc1n2nc(N)sc2n[n+]1Cc1ccccc1	72.6 µM (inactive)		> 100 µM (inactive)	> 100 µM (inactive)	> 100 µM (inactive)	77.3 µM (inactive)	> 100 µM (inactive)	> 100 µM (inactive)	> 100 µM (inactive)	> 100 µM (inactive)	> 100 µM (inactive)	74.6 µM (inactive)	> 100 µM (inactive)	47.5 µM (inactive)	38.4 µM (inactive)	70.6 µM (inactive)	> 10 µM (inactive)	> 100 µM (inactive)	> 100 µM (inactive)	
CN(C)/C=C/c1ccnc2c1C(=O)c1ccccc1C2=O	15.6 µM (inactive)	10.9 µM (inactive)	3.21 µM (inactive)	3.22 µM (inactive)	4.46 µM (inactive)	15.2 µM (inactive)	44 µM (inactive)	19 µM (inactive)	8 µM (inactive)	17.3 µM (inactive)	16.3 µM (inactive)	3.59 µM (inactive)	16.5 µM (inactive)	2.45 µM (inactive)	> 48.4 µM (inactive)	8.99 µM (inactive)	2.35 µM (inactive)	8.51 µM (inactive)	5.33 µM (inactive)	
